From patent publication US9376380B2 (University of Pittsburgh—Of the Commonwealth System of …, priority 2011, dated 2016)
Where two headings read alike, the source gives them in different places.

Legend:
[1] = test system: peripheral blood mononuclear cell (PBMC); assay: Cytotoxicity on normal human PBMC, trypan blue exclusion; assay type: cell-based; details: 3 days
Excerpt: Peripheral blood was drawn in a heparinized syringe from healthy fasting volunteers who had been without medication for at least 2 weeks. The peripheral blood mononuclear cell (PBMC) fraction was obtained by gradient centrifugation over Ficoll-Hypaque (Amersham), as described by Feng, R. et al. S. KD5170, a novel mercaptoketone-based histone deacetylase inhibitor, exerts antimyeloma effects by DNA damage and mitochondrial signaling, Mol. Cancer Ther. 2008, 7, 1494-1505. […] The compounds in a stock solution (50 mMin DMSO) were diluted with the culture medium to application conditions and further used for the treatment of PBMC for 3 days. The final DMSO concentrations are always 0.02%. After treatment for 72 h, cell viability was determined using trypan blue exclusion assay. These human cell studies conformed to the guidelines of the Institutional Review Board of the University of Pittsburgh, Pa.

[2] = target: CB2 receptor (Homo sapiens, UniProt P34972); assay: [3H]CP-55,940 radioligand competition binding, CB2; parameters: host or cells: cell membrane preparations; details: for SI: selectivity index for CB2: Ki(CB1)/Ki(CB2) ratio
[3] = test system: RAW 264.7 cells; assay: RANKL-induced osteoclast differentiation on RAW 264.7 cells (TRAP); assay type: cell-based, mouse; details: for inhibition of RANKL-induced osteoclastogenesis, dose dependence: RANKL 15 ng/mL, 5 days
Excerpt: FIG. 5. Anti-osteoclastogenesis activity of exemplary compounds. […] The bar indicates the SD. (B) Photographs of cells in the test of compound 93 (original magnification 100×).

[4] = target: T1, CB1 receptor (Homo sapiens, UniProt P21554); assay: [3H]CP-55,940 radioligand competition binding, CB1; details: [3H]CP-55,940 displacement; read-out: Ki (CB1)
T1 construct: host or cells: cell membrane preparations

[5] = [3H]CP-55,940 displacement, read-out: Ki (CB2)
[6] = Mus musculus, RAW264.7, 1 μM, read-out: inhibition rate of osteoclast formation

T1 sequence (P21554 whole entry): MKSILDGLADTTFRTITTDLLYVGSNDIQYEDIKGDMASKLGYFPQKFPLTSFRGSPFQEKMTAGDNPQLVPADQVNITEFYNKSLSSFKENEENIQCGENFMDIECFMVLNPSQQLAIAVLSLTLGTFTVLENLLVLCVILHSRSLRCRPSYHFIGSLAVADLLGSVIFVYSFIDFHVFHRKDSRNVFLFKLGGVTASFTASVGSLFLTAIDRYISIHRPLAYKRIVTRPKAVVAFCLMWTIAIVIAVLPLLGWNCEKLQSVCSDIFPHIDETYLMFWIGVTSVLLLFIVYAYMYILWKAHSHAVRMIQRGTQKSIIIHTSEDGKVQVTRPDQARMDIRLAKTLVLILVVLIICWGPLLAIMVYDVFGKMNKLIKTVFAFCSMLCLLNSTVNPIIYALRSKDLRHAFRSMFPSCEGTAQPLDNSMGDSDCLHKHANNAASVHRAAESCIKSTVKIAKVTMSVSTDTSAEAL
Sequence of CB2 receptor (P34972 whole entry): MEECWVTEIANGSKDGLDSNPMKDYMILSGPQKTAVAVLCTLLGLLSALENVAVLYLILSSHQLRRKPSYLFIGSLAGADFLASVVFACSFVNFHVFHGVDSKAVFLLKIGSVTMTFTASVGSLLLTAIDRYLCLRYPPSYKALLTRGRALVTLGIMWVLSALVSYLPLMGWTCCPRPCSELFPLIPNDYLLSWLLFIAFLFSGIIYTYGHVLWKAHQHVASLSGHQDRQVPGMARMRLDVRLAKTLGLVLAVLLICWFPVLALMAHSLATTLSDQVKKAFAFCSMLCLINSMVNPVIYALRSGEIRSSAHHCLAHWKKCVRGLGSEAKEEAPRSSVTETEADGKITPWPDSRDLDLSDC

| SI: selectivity index for CB2 [2] | Ki [2, 5] [nM] | Ki [4] [nM] | SMILES | further results |
| --- | --- | --- | --- | --- |
| 183 | 36 | 6620 | CCN(CC)c1ccc(CN(c2ccc(Cl)cc2)S(=O)(=O)c2ccc(Cl)cc2)cc1 [Compound 83, 4-Chloro-N-(4-chlorophenyl)-N-(4-(diethylamino)benzyl)benzenesulfonamide] | – |
| >1,428 | 14 | > 20000 | CCN(CC)c1ccc(CN(c2ccc(Cl)cc2)S(=O)(=O)c2ccc(OC)cc2)cc1 [Compound 84, N-(4-Chlorophenyl)-N-(4-(diethylamino)benzyl)-4-methoxybenzenesulfonamide] | inhibition activity at low dose ([3]; 1 μM): good inhibition activity; inhibition at 1 µM [3, 6]: 97%; inhibition of RANKL-induced osteoclastogenesis, dose dependence [3]: dose-dependent manner; effect on cell viability ([1]; 5 μM): only slight effect on cell viability; cell viability vs vehicle control ([1]; 1.25 and 2.5 μM): not significantly affected; effects on cell viability ([1]; 5 and 10 μM): only some effects on cell viability; cell viability vs vehicle control [1]: not significantly affected |
| 3.7 | 37 | 137 | CCN(CC)c1ccc(CN(c2ccc(Cl)cc2)S(=O)(=O)c2ccc(C)cc2)cc1 [Compound 85, N-(4-Chlorophenyl)-N-(4-(diethylamino)benzyl)-4-methylbenzenesulfonamide] | – |
| – | 2.8 | 866 | CCN(CC)c1ccc(CN(c2ccc(Cl)cc2)S(=O)(=O)c2cccc(C)c2)cc1 [Compound 86, N-(4-Chlorophenyl)-N-(4-(diethylamino)benzyl)-3-methylbenzenesulfonamide] | – |
| 151 | 3.4 | 514 | CCN(CC)c1ccc(CN(c2ccc(C)cc2)S(=O)(=O)c2ccccc2)cc1 [Compound 90, N-(4-(Diethylamino)benzyl)-N-(p-tolyl)benzenesulfonamide] | – |
| 153 | 5.6 | 858 | CCN(CC)c1ccc(CN(c2ccc(C)cc2)S(=O)(=O)c2ccc(F)cc2)cc1 [Compound 91, N-(4-(Diethylamino)benzyl)-4-fluoro-N-(p-tolyl)benzenesulfonamide] | – |
| – | 3 | 412 | CCN(CC)c1ccc(CN(c2ccc(C)cc2)S(=O)(=O)c2ccc(Cl)cc2)cc1 [Compound 92, 4-Chloro-N-(4-(diethylamino)benzyl)-N-(p-tolyl)benzenesulfonamide] | – |
| 37 | 5.8 | 218 | CCN(CC)c1ccc(CN(c2ccc(C)cc2)S(=O)(=O)c2cccc(C)c2)cc1 [Compound 95, N-(4-(Diethylamino)benzyl)-3-methyl-N-(p-tolyl)benzenesulfonamide] | – |
| 782 | 4.3 | 3360 | CCN(CC)c1ccc(CN(c2ccc(C)cc2)S(=O)(=O)c2ccc(C(C)C)cc2)cc1 [Compound 96, N-(4-(Diethylamino)benzyl)-4-isopropyl-N-(p-tolyl)benzenesulfonamide] | – |

Second part, the compound before the results:

| SMILES | SI: selectivity index for CB2 [2] | Ki [2, 5] [nM] | Ki [4] [nM] | further results |
| --- | --- | --- | --- | --- |
| CC(C)c1ccc(C(NC(=O)Cc2ccccc2)NC(=O)Cc2ccccc2)cc1 [Compound 9, N,N′-((4-isopropylphenyl)methylene)bis(2-phenylacetamide)] | – | – | – | cell viability vs vehicle control [1]: not significantly affected |
| CC(C)Oc1ccc(C(NC(=O)Cc2ccccc2)NC(=O)Cc2ccccc2)cc1 [Compound 12, N,N′-((4-isopropoxyphenyl)methylene)bis(2-phenylacetamide)] | – | – | – | cell viability vs vehicle control [1]: not significantly affected |
| CCN(CC)c1ccc(C(NC(=O)Cc2ccccc2)NC(=O)Cc2ccccc2)cc1 [Compound 17, N,N′-((4-(diethylamino)phenyl)methylene)bis(2-phenylacetamide)] | >313 | 64 | – | inhibition at 0.1 µM ([3]; Mus musculus, RAW264.7, 0.1 μM, read-out: inhibition rate of osteoclast formation): 72%; inhibition at 1 µM [3, 6]: 79%; inhibition at 10 µM ([3]; Mus musculus, RAW264.7, 10 μM, read-out: inhibition rate of osteoclast formation): 84%; cytotoxic effects ([1]; 1 μM): did not show any cytotoxic effects; effects on cell viability ([1]; 10 μM): only slight effects on cell viability; cell viability vs vehicle control [1]: not significantly affected |
| CCN(CC)c1ccc(CN(C23CC4CC(CC(C4)C2)C3)S(=O)(=O)c2ccc(F)cc2)cc1 [Compound 57, N-((3s,5s,7s)-Adamantan-1-yl)-N-(4-(diethylamino)benzyl)-4-fluorobenzenesulfonamide] | – | – | 4270 | Ki [2]: 25 nM |
| CCN(CC)c1ccc(CN(C23CC4CC(CC(C4)C2)C3)S(=O)(=O)c2ccc(Cl)cc2)cc1 [Compound 58, N-((3s,5s,7s)-Adamantan-1-yl)-4-chloro-N-(4-(diethylamino)benzyl)benzenesulfonamide] | 11 | 173 | 2030 | – |
| CCN(CC)c1ccc(CN(C23CC4CC(CC(C4)C2)C3)S(=O)(=O)c2cccc(C)c2)cc1 [Compound 61, N-((3s,5s,7s)-Adamantan-1-yl)-N-(4-(diethylamino)benzyl)-3-methylbenzenesulfonamide] | – | – | 8220 | Ki [2]: 19 nM; inhibition of RANKL-induced osteoclastogenesis, dose dependence [3]: dose-dependent manner |
| CCN(CC)c1ccc(CN(C(=O)C2CCCCC2)C23CC4CC(CC(C4)C2)C3)cc1 [Compound 63, N-((3s,5s,7s)-Adamantan-1-yl)-N-(4-(diethylamino)benzyl)cyclohexanecarboxamide] | >571 | – | > 20000 | Ki [2]: 35 nM |
| CCN(CC)c1ccc(CN(C(=O)Cc2ccccc2)C23CC4CC(CC(C4)C2)C3)cc1 [Compound 66, N-((3s,5s,7s)-Adamantan-1-yl)-N-(4-(diethylamino)benzyl)-2-phenylacetamide] | >333 | 60 | > 20000 | – |
| CCN(CC)c1ccc(CN(c2ccc(Cl)cc2)S(=O)(=O)c2ccc(F)cc2)cc1 [Compound 82, N-(4-Chlorophenyl)-N-(4-(diethylamino)benzyl)-4-fluorobenzenesulfonamide] | 15 | 73 | 1130 | – |
| CCN(CC)c1ccc(CN(C(=O)Cc2ccc(Cl)cc2)c2ccc(Cl)cc2)cc1 [Compound 88, N,2-bis(4-Chlorophenyl)-N-(4-(diethylamino)benzyl)acetamide] | 147 | 136 | > 20000 | – |
| CCN(CC)c1ccc(CN(C(=O)C2CCCCC2)c2ccc(Cl)cc2)cc1 [Compound 89, N-(4-Chlorophenyl)-N-(4-(diethylamino)benzyl)cyclohexanecarboxamide] | 121 | 164 | > 20000 | – |
| CCN(CC)c1ccc(CN(C(=O)Cc2ccccc2)c2ccc(C)cc2)cc1 [Compound 97, N-(4-(Diethylamino)benzyl)-2-phenyl-N-(p-tolyl)acetamide] | >277 | 72 | > 20000 | – |
| CCN(CC)c1ccc(CN(C(=O)Cc2ccc(Cl)cc2)c2ccc(C)cc2)cc1 [Compound 98, 2-(4-Chlorophenyl)-N-(4-(diethylamino)benzyl)-N-(p-tolyl)acetamide] | 29 | 107 | 3200 | – |
| CCN(CC)c1ccc(CN(C(=O)C2CCCCC2)c2ccc(C)cc2)cc1 [Compound 99, N-(4-(Diethylamino)benzyl)-N-(p-tolyl)cyclohexanecarboxamide] | 0.9 | 222 | 202 | – |
